Key:
[1] = system: IRP2−/− mice; test: Observation of other signs of neurodegeneration in IRP2−/− mice; format: in vivo; conditions: IRP2−/− mice supplemented with Tempo1
Text: Background on Experimental Model: In the following examples, IRP2−/− mice are used to model neurodegerative disease. The neurodegeneration of IRP2−/− animals is characterized by progressive loss of motor capabilities, for example as measured in mice by performance on hang-tests, rotarod rotating drum treadmill testing, balance beams, climbing pole tests, allelerods, footprints, decreased grooming activities and gait abnormalities in adult animals. The neurodegeneration of IRP2−/− animals progresses slowly as animals age.
Diet: The mice were weaned 3-4 weeks after their birth. Immediately after weaning, mice were maintained on either a Tempo1-supplemented or control diet. In the Tempo1-supplemented diet, powdered Tempo1 was uniformly mixed with bacon-flavored mouse chow by a “cold press” technique (Bio-Serv, Frenchtown, N.J., USA) at a concentration of 10 mg/g of food. Bacon-flavored chow without Tempo1 was used as the control diet.

[2] = biological target: T1, IRP1 (Mus musculus, UniProt P28271); test: IRE-binding activity of IRP1 in IRP2−/− embryonic fibroblasts (gel shift); format: cell-based; parameters: Embryonic fibroblasts of 13-day old embryos were isolated from wild type, IRP1−/− mice and IRP2−/− mice; endogenous in cells; host or cells: mouse embryonic fibroblasts (wild type and IRP2−/−); conditions: 0.3 and 1.0 mM, 16 h
T1 sequence (P28271 1-889): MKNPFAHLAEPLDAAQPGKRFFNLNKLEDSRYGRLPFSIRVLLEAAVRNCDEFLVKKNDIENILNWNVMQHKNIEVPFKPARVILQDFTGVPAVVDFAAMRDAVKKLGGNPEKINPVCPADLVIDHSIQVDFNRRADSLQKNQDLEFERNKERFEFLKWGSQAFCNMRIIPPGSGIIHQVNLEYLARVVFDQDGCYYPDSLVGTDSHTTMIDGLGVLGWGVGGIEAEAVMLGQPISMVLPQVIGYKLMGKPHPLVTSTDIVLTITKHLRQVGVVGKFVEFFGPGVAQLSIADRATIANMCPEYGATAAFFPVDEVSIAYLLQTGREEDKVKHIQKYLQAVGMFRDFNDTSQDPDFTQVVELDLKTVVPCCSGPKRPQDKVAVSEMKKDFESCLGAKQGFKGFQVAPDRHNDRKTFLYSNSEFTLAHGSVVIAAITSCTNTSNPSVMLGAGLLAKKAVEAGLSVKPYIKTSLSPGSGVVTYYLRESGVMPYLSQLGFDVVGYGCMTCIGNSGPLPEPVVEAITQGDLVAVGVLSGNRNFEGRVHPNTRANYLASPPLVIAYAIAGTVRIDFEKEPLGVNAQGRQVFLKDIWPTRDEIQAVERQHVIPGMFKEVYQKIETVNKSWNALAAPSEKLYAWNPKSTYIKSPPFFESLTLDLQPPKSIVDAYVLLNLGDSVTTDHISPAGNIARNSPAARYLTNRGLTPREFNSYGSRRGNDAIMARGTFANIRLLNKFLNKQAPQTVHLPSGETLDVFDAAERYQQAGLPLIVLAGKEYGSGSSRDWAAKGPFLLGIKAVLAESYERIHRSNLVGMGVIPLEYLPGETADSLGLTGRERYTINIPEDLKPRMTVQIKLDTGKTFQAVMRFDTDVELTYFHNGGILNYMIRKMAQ
Protocol: Cells: Embryonic fibroblasts of 13-day old embryos were isolated from wild type, IRP1−/− mice and IRP2−/− mice as described in LaVaute et al. supra. Myc-tagged HEK 293 Tet-on cell line, in which IRP2 expression was inducible, was prepared and cultured as described Bourdon et al., Blood Cells Mol Dis, 31, 247-255 (2003). Erythroblasts were harvested from bone marrow and purified as described in Cooperman et al., Blood, 106, 1084-1091 (2005).
RNA mobility shift assays: Gel retardation assays were performed as described in Meyron-Holtz et al., EMBO J, 23, 386-395 (2004). Tissue lysates were prepared in an anaerobic chamber as described above in oxygen-depleted lysis buffer containing 10 mM HEPES (pH 7.2), 3 mM MgC12, 40 mM KCl, 5% glycerol, 0.2% Nonidet P-40, 5 mM DTT, 1 mM AEBSF, 10 μg/ml. Leupeptin and complete TM EDTA free protease inhibitor cocktail (Roche Applied Science, Indiana). […]
To study the effect of Tempo1 on the IRE-binding activity of IRP1, IRP2−/− embryonic fibroblasts that were maintained in culture supplemented with 0, 0.3 and 1.0 mM Tempo1, with or without ferric ammonium citrate (FAC), for 16 h. […] Quantification was performed with the IQMac (IRP1 activity) or NIH Image (protein levels) program. Error bars represent the standard deviation calculated from the results of two different sets of experiments.

## CC1(C)CC(O)CC(C)(C)N1[O] [Tempo1]
[1]
  other signs of neurodegeneration (movement disorders, tremor, abnormalities of gait and grooming): did not develop
[2]
  IRE-binding activity of IRP1: activate IRP1
